Data taken from PMC7353089, “The Hepatotoxicity of Alantolactone and Germacrone: Their Influence on Cholesterol and Lipid Metabolism in Differentiated HepaRG Cells” (Nutrients, 2020).

Assays:
Assay type in all cases: cell-based, human
Conditions in all cases: multiple exposure: four applications every 24 h, analyzed 12 h after the last; 30 μM ATL, 100 μM GER, 20 μM LOV
HMGCR mRNA = test: RT-qPCR mRNA expression in dHepaRG cells
Protocol: The mRNA and protein expression changes were measured after a single administration of ALA and GER. Three concentrations were selected for each compound (non-toxic, non-toxic/slightly toxic and toxic). The cholesterol level of the dHepaRG cells was measured after a multiple exposure of the highest non-toxic concentrations of tested compounds. ATL (30 µM) and GER (100 µM) were administered four times every 24 h. The expression changes of genes and proteins related to cholesterol metabolism were measured in both single and multiple exposure experiments.
All treatments were performed in triplicates and every experiment was performed three times. The cells were washed twice with ice cold phosphate-buffered saline (PBS), scrapped and stored at −80 °C until use. Total RNA from cells was isolated using TriReagent according to the manufacturer’s instructions (Biotech, Prague, Czech Republic). The purified RNA was dissolved in 40 µL of diethyl pyrocarbonate (DEPC)-treated water (0.01% DEPC in HPLC water, autoclaved) and stored at −80 °C. The measurement of absorbance at 260 and 280 nm using the NanoDrop ND-1000 UV–VIS Spectrophotometer (Thermo Fisher Scientific, Pardubice, Czech Republic) was used to determine RNA yields and purity. Subsequently, the RNA (4 µg) was treated with 2 U of DNase I (New England Biolabs, Ipswich, MA, USA) in a final volume of 30 µL for 25 min at 37 °C, 1.5 µL of 0.1 M ethylenediaminetetraacetic acid was added and the DNAse was inactivated by heat (5 min at 75 °C). The solution was diluted to a concentration of 0.1 µg/µL. The DNAse treated RNA was stored at −80 °C until further analyses. […] Fluorescence data were recorded at the end of each amplification step. Relative expression levels of the target genes were calculated as fold changes in triplicates for each group using the 2^−ΔΔCt method by normalization to the geometric mean of the Ct values of Sdha and Ywhaz, which were used as reference genes.

SREBP-2 (F) = test: Western blot protein level in dHepaRG cells
Protocol: All the treatments were performed in triplicates. Protein concentration was measured using the bicinchoninic acid (BCA) protein assay (Sigma Aldrich, Prague, Czech Republic) according to the manufacturer’s instructions. The proteins were loaded onto a 10% sodium dodecyl sulfate (SDS; w/v)–polyacrylamide gel (with 4% stacking gel) and separated by SDS-PAGE electrophoresis. The proteins were transferred onto a nitrocellulose membrane using wet blot (100 V, 90 min). The membrane blocking was performed in a 5% non-fat dry milk/TRIS-buffered saline-Tween-20 (TBS-T) solution at room temperature for 2 h. Incubation with primary antibodies was accomplished overnight at 10 °C. β-actin was used as housekeeping protein (the list of primary antibodies in Table S2). Afterwards, the membrane was washed with 0.05% TBS-T solution for 6 × 5 min, incubated with respective secondary antibodies conjugated with horseradish peroxidase (bovine anti-rabbit (sc2370, Santa Cruz Biotechnology, Santa Cruz, CA, USA) at room temperature for 1.5 h, and rinsed with TBS-T solution for 6 × 5 min. Visualization of protein bands was carried out using a chemiluminescence kit (GE Healthcare, Buckinghamshire, UK).

HMGCS mRNA = test: RT-qPCR mRNA expression in dHepaRG cells
Protocol: Three concentrations were selected for each compound (non-toxic, non-toxic/slightly toxic and toxic). The cholesterol level of the dHepaRG cells was measured after a multiple exposure of the highest non-toxic concentrations of tested compounds. […] The expression changes of genes and proteins related to cholesterol metabolism were measured in both single and multiple exposure experiments.
All treatments were performed in triplicates and every experiment was performed three times. The cells were washed twice with ice cold phosphate-buffered saline (PBS), scrapped and stored at −80 °C until use. Total RNA from cells was isolated using TriReagent according to the manufacturer’s instructions (Biotech, Prague, Czech Republic). The purified RNA was dissolved in 40 µL of diethyl pyrocarbonate (DEPC)-treated water (0.01% DEPC in HPLC water, autoclaved) and stored at −80 °C. The measurement of absorbance at 260 and 280 nm using the NanoDrop ND-1000 UV–VIS Spectrophotometer (Thermo Fisher Scientific, Pardubice, Czech Republic) was used to determine RNA yields and purity. Subsequently, the RNA (4 µg) was treated with 2 U of DNase I (New England Biolabs, Ipswich, MA, USA) in a final volume of 30 µL for 25 min at 37 °C, 1.5 µL of 0.1 M ethylenediaminetetraacetic acid was added and the DNAse was inactivated by heat (5 min at 75 °C). The solution was diluted to a concentration of 0.1 µg/µL. The DNAse treated RNA was stored at −80 °C until further analyses. The first strand cDNA was synthesized from 800 ng of total RNA and 1 µL of 50 µM random hexamers (Generi Biotech, Hradec Kralove, Czech Republic) using ProtoScript II reverse transcriptase (New England Biolabs, Ipswich, MA, USA). After the initial heat denaturation of total RNA (65 °C for 5 min), 4 µL of 5× ProtoScript II RT Reaction Buffer, 2 µL of 10× dithiothreitol (DTT), 2 µL of deoxynucleotide (dNTP) Mix 5 mM, 3.5 µL of H2O, and 0.5 µL of ProtoScript II 200 U/µL were added and mixed by pipetting. The reactions (20 µL) were incubated for 10 min at 25 °C, for 50 min at 42 °C, and for 5 min at 80 °C. The obtained cDNAs were diluted 1:6 by DEPC water. The qPCR analyses were carried out using QuantStudio 6 Flex (Applied Biosystems, Foster City, CA, USA) with SYBR green I (Xceed qPCR SG Mix, Institute of Applied Biotechnologies, Prague, Czech Republic) detection according to the manufacturer’s protocol. […] Fluorescence data were recorded at the end of each amplification step. Relative expression levels of the target genes were calculated as fold changes in triplicates for each group using the 2^−ΔΔCt method [28] by normalization to the geometric mean of the Ct values of Sdha and Ywhaz, which were used as reference genes.

SMILES: CC[C@H](C)C(=O)O[C@H]1C[C@@H](C)C=C2C=C[C@H](C)[C@H](CC[C@@H]3C[C@@H](O)CC(=O)O3)[C@H]21 [LOV, lovastatin, reference compound]
- HMGCR mRNA level (HMGCR mRNA): decreased significantly
- SREBP-2 (F) protein level (SREBP-2 (F)): decreased
- HMGCS mRNA level (HMGCS mRNA): decreased significantly
